Results taken from US12590126B2, “Compounds for selective disruption of protein-protein interactions” (SyntheX, Inc., priority 2017, dated 2026).
Read-outs that look alike come from different tables or passages of the source. Where a SMILES comes first, the peptide text is derived from it. [ ]: non-standard residue; d: D form. 2Nal = N[C@@H](Cc1ccc2ccccc2c1)C(=O)O; dNle = CCCC[C@@H](N)C(=O)O; dAbu = CC[C@@H](N)C(=O)O; Ahx = NCCCCCC(=O)O; βAla = NCCC(=O)O

Experiments:
[1] = system: SSP-25 cells; experiment: xCELLigence cell death assay in SSP-25 cells (cellular assay for RAD51 inhibition); assay type: cell-based; conditions: concentration gradient added at 20 hour mark, only values with R^>0.85 shown
Protocol: The efficacy of the peptides described herein was assessed by their ability to cause death in SSP-25 cells, which have amplification of RAD51 and are dependent on its activity.
First, 5,000 SSP25 cells were plated, and adherence and growth was measured for 20 hours using live measurements of current impedance through the plate using the xCELLigence™ instrument. At the 20 hour mark, a concentration gradient of each compound or a PBS control was added to the SSP-25 cells, which were cultured in […] RMPI media with 10% FBS. […] Only values with confidence and R^>0.85 are shown.

[2] = system: fresh human RBCs; assay type: cell-based; conditions: red cells of human, 1 h, 250
Protocol: To assess the nonspecific lytic properties of each compounds disclosed herein, each mentioned compound was tested for hemolytic properties against fresh human RBCs. Briefly, donor blood was drawn into a K2EDTA anticoagulant tube from multiple O+ donors. The blood was washed 3 times in PBS. RBCs were diluted to 2% in PBS and compounds were added at various concentrations. Samples were incubated at 37 C for 1 hr, then centrifuged at 2200 rpm for 5 min. Supernatants were measured for absorbance at 450 nm or 405 nm. The percentage hemolysis was calculated as lysis relative to 1% Triton X-100 incubation.

[3] = Mouse pharmacokinetics, IV and IP dosing; assay type: in vivo, mice; conditions: for AUC(0-inf) / AUC(0-t) / C0 / MRT inf / clearance / half-life / Vd: in vivo
Protocol: The pharmocokinetic parameters in mice by both intravenous (IV) and intraperitoneal (IP) dosing, as well as the serum and microsome stability for each of compound 22, 23, 24, and 25 was determined. Bioanalytical methods were developed for each compound using an LC-MS/MS method with LLOQ>100 ng/ml.
For in-vivo PK work, at least 3 mice were used per timepoint. For each compound, the animals were injected either IV or IP with the compound. IV injections used 1 mg/kg, and IP injections were at 15 mg/kg. Blood was collected at the indicated timepoints and analyzed according to the bioanalytical method developed.

[4] = in vitro; conditions: mouse, microsomes
Protocol: (§1) For HLM and MLM stability studies, each compound was incubated with the liver microsome mixture for up to an hour at 37 C in the presence of NADPH.
(§2) After the incubations, the reactions were stopped and the compounds were analyzed according to the method developed for each.

[5] = in vitro; conditions: mouse, serum
Protocol: Serum stability data was obtained using the appropriate animal serum, each incubated with the compound for up to two hours at 37 C.

[6] = in vitro; conditions: human, microsomes
Protocol: as §1, §2

[7] = ip, 15 mg/kg, 15 mg/kg IP, read-out: t½ (converted)
[8] = ip, 15 mg/kg, IP (15 mg/kg), read-out: Half-life Mouse IP
[9] = iv, 1 mg/kg, 1 mg/kg IV, read-out: Vss
[10] = iv, 1 mg/kg, 1 mg/kg IV, read-out: Vz
[11] = iv, 1 mg/kg, 1 mg/kg IV, read-out: t½ (converted)
[12] = iv, 1 mg/kg, IV (1 mg/kg), read-out: Half-life Mouse IV

Question: With `CCCC[C@@H](NC(=O)[C@@H](CCCNC(=N)N)NC(=O)[C@@H](CC(C)C)NC(=O)[C@@H](CCCNC(=N)N)NC(=O)[C@@H](CCCNC(=N)N)NC(=O)[C@@H](CC)NC(=O)[C@@H](CCCNC(=N)N)NC(=O)[C@@H](CCCC)NC(=O)[C@@H](CC(C)C)NC(C)=O)C(=O)NCCC(=O)N[C@H](CC(C)C)C(=O)N[C@H](CCCNC(=N)N)C(=O)N[C@H](CCCCN)C(=O)N[C@H](CCCNC(=N)N)C(=O)N[C@H](CCCNC(=N)N)C(=O)N[C@H](CCCNC(=N)N)C(=O)N[C@H](CCCNC(=N)N)C(=O)N[C@H](CCCNC(=N)N)C(=O)NCC(=O)N[C@@H](Cc1ccc2ccccc2c1)C(N)=O` [Compound 18, Ac-l{d-norLeucine}r(abu)rrlr[d-norLeucine][beta-ALA]lrkrrrrrGΦ-NH2] (Ac-[dL][dNle][dR][dAbu][dR][dR][dL][dR][dNle][βAla][dL][dR][dK][dR][dR][dR][dR][dR]G[2Nal]-NH2) as the molecule, how does the IC50 [1] read?
Answer: The IC50 was 17.8 µM.

Question: What about the “% Hemolysis (250 uM)” value [2] of the same molecule?
Answer: The value was 17%.

Question: What does the source list for `CCCC[C@@H](NC(=O)[C@@H](CC(C)C)NC(C)=O)C(=O)N[C@H](CCCNC(=N)N)C(=O)N[C@H](CO)C(=O)N[C@@H](C(=O)N[C@H](CCCNC(=N)N)C(=O)N[C@H](CC(C)C)C(=O)N[C@H](CCCNC(=N)N)C(=O)N[C@@H](C(=O)NCC(=O)N[C@H](CC(C)C)C(=O)N[C@H](CCCNC(=N)N)C(=O)NCCCCCC(=O)N[C@H](CCCNC(=N)N)C(=O)NCCCCCC(=O)N[C@H](CCCNC(=N)N)C(=O)NCCCCCC(=O)N[C@H](CCCNC(=N)N)C(=O)NCCCCCC(=O)N[C@H](CCCNC(=N)N)C(=O)NCCCCCC(=O)N[C@H](CCCNC(=N)N)C(N)=O)C(C)C)C(C)C` [Compound 25, Ac-l{d-norLeucine}rsvrlrvGlr(Ahx)r(Ahx)r(Ahx)r(Ahx)r(Ahx)r-NH2]?
Answer: AUC Extr ([3]; 1 mg/kg IV): 16.8%; Vss ([3]; 15 mg/kg IP): 3.41 L/kg; AUC(0-inf) ([3]; 1 mg/kg IV): 308 ng·h/mL; AUC(0-t) ([3]; 1 mg/kg IV): 254 ng·h/mL; C0 ([3]; 1 mg/kg IV): 750 ng/mL; MRT inf ([3]; 1 mg/kg IV): 0.551 h; clearance ([3]; 1 mg/kg IV): 55.7 mL/min/kg; AUC(0-inf) ([3]; 15 mg/kg IP): 831 ng·h/mL; MRT inf ([3]; 15 mg/kg IP): 21.8 h; half-life [3, 7]: 2.14 h; half-life [3, 8]: 2.14 h; Vd [3, 9]: 1.8 L/kg; Vd [3, 10]: 1.99 L/kg; half-life [3, 11]: 0.423 h; half-life [3, 12]: 0.423 h; half-life [4]: 0.77 h; IC50 [1]: 14 µM; half-life [5]: > 8.33 h; half-life [6]: 1.36 h; % Hemolysis (250 uM) [2]: 4%

Question: Which results are given for `CCCC[C@@H](NC(=O)[C@@H](CC(C)C)NC(C)=O)C(=O)N[C@H](CCCNC(=N)N)C(=O)N[C@H](CO)C(=O)N[C@@H](C(=O)N[C@H](CCCNC(=N)N)C(=O)N[C@H](CC(C)C)C(=O)N[C@H](CCCNC(=N)N)C(=O)N[C@@H](C(=O)NCCC(=O)N[C@H](CC(C)C)C(=O)N[C@H](CCCNC(=N)N)C(=O)N[C@H](CCCCN)C(=O)N[C@H](CCCNC(=N)N)C(=O)N[C@H](CCCNC(=N)N)C(=O)N[C@H](CCCNC(=N)N)C(=O)N[C@H](CCCNC(=N)N)C(=O)N[C@H](CCCNC(=N)N)C(=O)NCC(=O)N[C@@H](Cc1ccc2ccccc2c1)C(N)=O)C(C)C)C(C)C` [Compound 17, Ac-l{d-norLeucine}rsvdrv[beta-ALA]lrkrrrrrGΦ-NH2] (Ac-[dL][dNle][dR][dS][dV][dR][dL][dR][dV][βAla][dL][dR][dK][dR][dR][dR][dR][dR]G[2Nal]-NH2)?
Answer: IC50 [1]: 20 µM; % Hemolysis (250 uM) [2]: 32%

Question: For `CCCC[C@@H](NC(=O)[C@@H](CC(C)C)NC(C)=O)C(=O)N[C@H](CCCNC(=N)N)C(=O)N[C@H](CO)C(=O)N[C@@H](C(=O)N[C@H](CCCNC(=N)N)C(=O)N[C@H](CC(C)C)C(=O)N[C@H](CCCNC(=N)N)C(=O)N[C@@H](C(=O)NCC(=O)N[C@H](CC(C)C)C(=O)N[C@H](CCCNC(=N)N)C(=O)N[C@H](CCCNC(=N)N)C(=O)N[C@H](CCCNC(=N)N)C(=O)N[C@H](CCCNC(=N)N)C(=O)N[C@H](CCCNC(=N)N)C(=O)N[C@H](CCCNC(=N)N)C(=O)N(C)CC(=O)N(C)CC(=O)OC)C(C)C)C(C)C` [Compound 21, Ac-l{d-norLeucine}rsvrlrvGlrrrrrr-sarcosine-sarcosine-OMe], which IC50 [1] is on record?
Answer: Its IC50 is 25 µM.

Question: And the “% Hemolysis (250 uM)” value [2]?
Answer: Its value is 31%.

Question: What does the source list for `CCCC[C@@H](NC(=O)[C@@H](CC(C)C)NC(C)=O)C(=O)N[C@H](CCCNC(=N)N)C(=O)N[C@H](C)C(=O)N[C@@H](C(=O)N[C@H](CCCNC(=N)N)C(=O)N[C@H](CC(C)C)C(=O)N[C@H](CCCNC(=N)N)C(=O)N[C@@H](C(=O)NCCC(=O)N[C@H](CC(C)C)C(=O)N[C@H](CCCNC(=N)N)C(=O)NCCCCCC(=O)N[C@H](CCCNC(=N)N)C(=O)NCCCCCC(=O)N[C@H](CCCNC(=N)N)C(=O)NCCCCCC(=O)N[C@H](CCCNC(=N)N)C(=O)NCCCCCC(=O)N[C@H](CCCNC(=N)N)C(=O)NCCCCCC(=O)N[C@H](CCCNC(=N)N)C(=O)NCCCCCC(=O)N[C@H](Cc1ccc(O)cc1)C(N)=O)C(C)C)C(C)C` [Compound 24, Ac-l{d-norLeucine}ravrlrv[beta-ALA]lr(Ahx)r(Ahx)r(Ahx)r(Ahx)r(Ahx)r(Ahx)y-NH2] (Ac-[dL][dNle][dR][dA][dV][dR][dL][dR][dV][βAla][dL][dR][Ahx][dR][Ahx][dR][Ahx][dR][Ahx][dR][Ahx][dR][Ahx][dY]-NH2)?
Answer: AUC Extr ([3]; 1 mg/kg IV): 28.8%; Vss ([3]; 15 mg/kg IP): 2.95 L/kg; AUC(0-inf) ([3]; 1 mg/kg IV): 528 ng·h/mL; AUC(0-t) ([3]; 1 mg/kg IV): 375 ng·h/mL; C0 ([3]; 1 mg/kg IV): 683 ng/mL; MRT inf ([3]; 1 mg/kg IV): 0.779 h; clearance ([3]; 1 mg/kg IV): 31.7 mL/min/kg; AUC(0-inf) ([3]; 15 mg/kg IP): 1010 ng·h/mL; MRT inf ([3]; 15 mg/kg IP): 17.9 h; half-life [3, 7]: 1.89 h; half-life [3, 8]: 1.88 h; Vd [3, 9]: 1.48 L/kg; Vd [3, 10]: 1.51 L/kg; half-life [3, 11]: 0.549 h; half-life [3, 12]: 0.549 h; half-life [4]: 1.93 h; IC50 [1]: 6.2 µM; half-life [5]: 4.62 h; half-life [6]: 0.947 h; % Hemolysis (250 uM) [2]: 3%

Question: With `CCCC[C@@H](NC(=O)[C@@H](CC(C)C)NC(C)=O)C(=O)N[C@H](CCCNC(=N)N)C(=O)N[C@H](C)C(=O)N[C@@H](C(=O)N[C@H](CCCNC(=N)N)C(=O)N[C@H](CC(C)C)C(=O)N[C@H](CCCNC(=N)N)C(=O)N[C@@H](C(=O)NCCC(=O)N[C@H](CC(C)C)C(=O)N[C@H](CCCNC(=N)N)C(=O)NCCCCCC(=O)N[C@H](CCCNC(=N)N)C(=O)NCCCCCC(=O)N[C@H](CCCNC(=N)N)C(=O)NCCCCCC(=O)N[C@H](CCCNC(=N)N)C(=O)NCCCCCC(=O)N[C@H](CCCNC(=N)N)C(=O)NCCCCCC(=O)N[C@H](CCCNC(=N)N)C(N)=O)C(C)C)C(C)C` [Compound 23, Ac-l{d-norLeucine}ravrlrv[beta-ALA]lr(Ahx)r(Ahx)r(Ahx)r(Ahx)r(Ahx)r-NH2] (Ac-[dL][dNle][dR][dA][dV][dR][dL][dR][dV][βAla][dL][dR][Ahx][dR][Ahx][dR][Ahx][dR][Ahx][dR][Ahx][dR]-NH2) as the molecule, how does the “AUC Extr” value ([3]; 1 mg/kg IV) read?
Answer: Its value is 28.5%.

Question: And the AUC(0-inf) ([3]; 1 mg/kg IV)?
Answer: Its AUC(0-inf) is 490 ng·h/mL.

Question: And the AUC(0-t) ([3]; 1 mg/kg IV)?
Answer: Its AUC(0-t) is 347 ng·h/mL.

Question: What about the C0 ([3]; 1 mg/kg IV) of the same molecule?
Answer: The C0 was 1480 ng/mL.

Question: And the MRT inf ([3]; 1 mg/kg IV)?
Answer: The MRT inf was 0.738 h.

Question: And the clearance ([3]; 1 mg/kg IV)?
Answer: Its clearance is 36.1 mL/min/kg.

Question: What about the AUC(0-inf) ([3]; 15 mg/kg IP) of the same molecule?
Answer: Its AUC(0-inf) is 341 ng·h/mL.

Question: What about the MRT inf ([3]; 15 mg/kg IP) of the same molecule?
Answer: Its MRT inf is 6.56 h.

Question: What about the Vd [3, 9] of the same molecule?
Answer: The Vd was 1.56 L/kg.

Question: What about the Vd [3, 10] of the same molecule?
Answer: Its Vd is 1.71 L/kg.

Question: What about the half-life [3, 11] of the same molecule?
Answer: Its half-life is 0.565 h.

Question: And the half-life [3, 12]?
Answer: The half-life was 0.564 h.

Question: And the half-life [4]?
Answer: The half-life was 0.696 h.

Question: And the IC50 [1]?
Answer: The IC50 was 20.6 µM.

Question: And the half-life [5]?
Answer: Its half-life is greater than 8.33 h.

Question: And the half-life [6]?
Answer: The half-life was 1.81 h.

Question: And the “% Hemolysis (250 uM)” value [2]?
Answer: The value was 3%.
